In publication PMC8869358, “High-Throughput Chemical Screening and Structure-Based Models to Predict hERG Inhibition” (Biology, 2022):
Counter-ions that a name gives are not always drawn.

Biological target: hERG (Homo sapiens, UniProt Q12809)
Assay: cell-based
Settings: (-LOG10(IC50), µM)

Sequence of hERG (Q12809 whole entry): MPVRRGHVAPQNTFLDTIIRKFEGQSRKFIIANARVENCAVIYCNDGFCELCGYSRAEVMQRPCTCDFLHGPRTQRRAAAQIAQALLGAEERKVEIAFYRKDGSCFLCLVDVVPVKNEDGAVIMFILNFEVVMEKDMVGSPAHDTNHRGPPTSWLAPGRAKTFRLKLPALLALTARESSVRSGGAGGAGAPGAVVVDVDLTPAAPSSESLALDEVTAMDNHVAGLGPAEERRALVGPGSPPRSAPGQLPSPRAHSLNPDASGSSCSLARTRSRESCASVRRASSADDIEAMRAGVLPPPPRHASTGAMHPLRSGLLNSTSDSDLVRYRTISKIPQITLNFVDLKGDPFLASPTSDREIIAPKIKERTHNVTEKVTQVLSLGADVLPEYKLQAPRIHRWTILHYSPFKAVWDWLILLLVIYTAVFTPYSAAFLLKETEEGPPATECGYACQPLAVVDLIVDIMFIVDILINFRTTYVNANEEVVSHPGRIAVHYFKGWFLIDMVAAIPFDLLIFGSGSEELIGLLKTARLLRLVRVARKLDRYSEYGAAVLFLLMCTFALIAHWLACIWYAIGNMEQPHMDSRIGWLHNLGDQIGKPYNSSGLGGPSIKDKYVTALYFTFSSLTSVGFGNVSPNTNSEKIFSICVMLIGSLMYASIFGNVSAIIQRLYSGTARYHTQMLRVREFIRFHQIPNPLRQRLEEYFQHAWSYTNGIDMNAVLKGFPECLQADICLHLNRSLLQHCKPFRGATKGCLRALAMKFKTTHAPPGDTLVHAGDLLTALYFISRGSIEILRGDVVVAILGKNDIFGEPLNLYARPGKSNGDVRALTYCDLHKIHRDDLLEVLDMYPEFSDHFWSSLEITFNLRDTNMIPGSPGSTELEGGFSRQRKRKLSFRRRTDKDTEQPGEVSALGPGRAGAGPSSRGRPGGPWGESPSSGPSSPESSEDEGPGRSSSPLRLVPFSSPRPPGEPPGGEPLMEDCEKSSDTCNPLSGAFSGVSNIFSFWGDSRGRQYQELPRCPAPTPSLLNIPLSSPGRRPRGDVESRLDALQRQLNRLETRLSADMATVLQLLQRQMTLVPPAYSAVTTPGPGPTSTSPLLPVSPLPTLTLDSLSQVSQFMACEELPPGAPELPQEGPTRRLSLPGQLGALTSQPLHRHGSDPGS

| SMILES | IC50 [µM] |
| --- | --- |
| CCOC(=O)COc1cc(-c2nn(C)c(OC(F)F)c2Cl)c(F)cc1Cl [Pyraflufen-ethyl] | 33.4 |
| CC(C)Nc1ccc(Nc2ccccc2)cc1 [N-Isopropyl-N'-phenyl-p-phenylenediamine] | 28.5 |
| CCc1nn(CCCN2CCN(c3cccc(Cl)c3)CC2)c(=O)n1CCOc1ccccc1 [Nefazodone hydrochloride] | 1.57 |
| C=CC(C)(CCC=C(C)C)OC(=O)c1ccccc1 (centres unmarked) [Linalyl benzoate] | 20.3 |
| CCOc1cc(Oc2ccc(C(F)(F)F)cc2Cl)ccc1[N+](=O)[O-] [Oxyfluorfen] | 21.9 |
| O=C1CC2(CCCC2)CC(=O)N1CCNCC1COc2ccccc2O1 (centres unmarked) [Binospirone mesylate] | 19 |
| CN(C)c1ccc(C(=O)c2ccc(N(C)C)cc2)cc1 [Bis(4-(dimethylamino)phenyl)methanone] | 57.1 |
| OC(c1ccc(Cl)cc1)(c1ccc(Cl)cc1)C(Cl)(Cl)Cl [Dicofol] | 30.9 |
| O=[N+]([O-])c1cc(C(F)(F)F)c(Cl)c([N+](=O)[O-])c1Cl [2,4-Dichloro-1,3-dinitro-5-(trifluoromethyl)benzene] | 34.7 |
| O=P(OCC(Br)CBr)(OCC(Br)CBr)OCC(Br)CBr (centres unmarked) [Tris(2,3-dibromopropyl) phosphate] | 16.9 |
| Cc1nc2n(c(=O)c1CCN1CCC(C(=O)c3ccc(F)cc3)CC1)CCS2 [Setoperone] | 9.89 |
| Cc1ccc(-n2nc(C(C)(C)C)cc2NC(=O)Nc2ccc(OCCN3CCOCC3)c3ccccc23)cc1 [Doramapimod] | 20.1 |
| Cc1c([N+](=O)[O-])cc2c(c1[N+](=O)[O-])C(C)(C)CC2(C)C [1,1,3,3,5-Pentamethyl-4,6-dinitro-2,3-dihydro-1H-indene] | 16.7 |
| ClCCCN1CCN(c2cccc(Cl)c2)CC1 [1-(3-Chlorophenyl)-4-(3-chloropropyl)piperazine hydrochloride] | 10.1 |
| CN1[C@@H]2CC[C@H]1C[C@@H](OC(=O)c1cc(Cl)cc(Cl)c1)C2 [Bemesetron] | 6.01 |
| CCCCCCCCCCCCn1cc[n+](C)c1 [1-Dodecyl-3-methylimidazolium iodide] | 10.6 |
| CC(C)COC(=O)C=Cc1ccccc1 [Isobutyl 3-phenylacrylate] | 50.9 |
| CCCCCCCCCC[N+](C)(CCCCCCCCCC)CCC[Si](OC)(OC)OC [Didecylmethyl(3-(trimethoxysilyl)propyl)ammonium chloride] | 2.65 |
| CC(C)(c1ccccc1)c1ccc(O)c(C(C)(C)c2ccccc2)c1 [2,4-Bis(1-methyl-1-phenylethyl)phenol] | 21.7 |
| CCCCCCCCCc1ccc(O)cc1 [4-Nonylphenol, branched] | 34.3 |
| CN1CCCN=C1COC(=O)C(O)(c1ccccc1)C1CCCCC1 (centres unmarked) [Oxyphencyclimine hydrochloride] | 5.15 |

| SMILES | IC50 [µM] |
| --- | --- |
| O=C1CCCCCCCCCCCCCC1 [Cyclopentadecanone] | 24.5 |
| CC[C@]12CCCN3CCc4c(n(c5ccccc45)C(=O)C1)[C@@H]32 [(-)-Eburnamonine] | 1.9 |
| CCCCOC(=O)[C@@H](C)Oc1ccc(Oc2ccc(C#N)cc2F)cc1 [Cyhalofop-butyl] | 4.87 |
| CCCN(CCc1cccs1)[C@H]1CCc2c(O)cccc2C1 [Rotigotine] | 3.01 |
| CCCCCCCCCCCCn1cc[n+](C)c1 [1-Dodecyl-3-methylimidazolium trifluoromethanesulfonate] | 4.61 |
| COC(=O)CSc1cc(N=c2sc(=O)n3n2CCCC3)c(F)cc1Cl [Fluthiacet-methyl] | 38.9 |
| CC=O [Acetaldehyde] | 5.33 |
| O=[N+]([O-])c1ccccc1Nc1ccccc1 [2-Nitrodiphenylamine] | 48.7 |
| CC(C)(Cc1c[nH]c2ccccc12)NCC(O)COc1ccccc1C#N (centres unmarked) [Bucindolol] | 8.49 |
| CCN(CC)c1ccc(N)cc1 [N,N-Diethyl-p-phenylenediamine] | 35.6 |
| C[C@@H](C1=C(CCN(C)C)Cc2ccccc21)c1ccccn1 [(S)-(+)-Dimethindene maleate] | 13.4 |
| CCC(C)Nc1c([N+](=O)[O-])cc(C(C)(C)C)cc1[N+](=O)[O-] (centres unmarked) [Butralin] | 23.6 |
| CN(C)CCCN1c2ccccc2Sc2ccccc21 [Promazine hydrochloride] | 9.52 |
| CCOc1cc(C(C)(C)C)ccc1C1COC(c2c(F)cccc2F)=N1 (centres unmarked) [Etoxazole] | 13.8 |
| CCC(C)(C)c1ccc(CC(C)CN2C[C@@H](C)O[C@@H](C)C2)cc1 (some centres unmarked) [Amorolfine] | 9.16 |
| CCCCc1cc2ccccc2c(OCCN(C)C)n1 [Dimethisoquin hydrochloride] | 3.65 |
| CC(C)(C)c1ccc(CCC=O)cc1 [3-(4-tert-Butylphenyl)propanal] | 49 |
| COc1ccc(CCN(C)CCCC(C#N)(c2cc(OC)c(OC)c(OC)c2)C(C)C)cc1OC (centres unmarked) [Gallopamil hydrochloride] | 7.28 |
| CC(C)CC(C)(c1ccc(O)cc1)c1ccc(O)cc1 [4,4'-(4-Methylpentane-2,2-diyl)diphenol] | 28.6 |
| CC(=O)C1=C(C)[C@@H]2C[C@@]3(C1)[C@H](C)CC[C@H]3C2(C)C [Acetylcedrene] | 30.5 |
| CCN(CCN)c1cccc(C)c1 [N-Ethyl-N-(3-methylphenyl)ethane-1,2-diamine] | 49 |

| SMILES | IC50 [µM] |
| --- | --- |
| CO[C@]12C[C@@H](COC(=O)c3cncc(Br)c3)CN(C)[C@@H]1Cc1cn(C)c3cccc2c13 [Nicergoline] | 1.45 |
| O=C(N[C@@H]1N=C(c2ccccc2F)c2cccc3c2N(CC3)C1=O)c1cc2ccccc2[nH]1 [N-[(3R)-1-(2-Fluorophenyl)-4-oxo-3,4,6,7-tetrahydro[1,4]diazepino[6,7,1-hi]indol-3-yl]-1H-indole-2-carboxamide] | 8.82 |
| CN(C)C(=O)NC1(c2ccccc2)CCN(CC[C@@]2(c3ccc(F)c(F)c3)CN(C(=O)c3ccccc3)CCO2)CC1 [SR144190] | 20.3 |
| CC(C)CC(C)Nc1ccc(Nc2ccccc2)cc1 (centres unmarked) [6PPD] | 29 |
| CC(C)(C)c1cccc(C(C)(C)C)c1O [2,6-Di-tert-butylphenol] | 19.8 |
| BrCC(Br)C1CCC(Br)C(Br)C1 (centres unmarked) [1,2-Dibromo-4-(1,2-dibromoethyl)cyclohexane] | 34.5 |
| Cc1ccc(C(=O)Oc2ccc(C(O)CNC(C)(C)C)cc2OC(=O)c2ccc(C)cc2)cc1 (centres unmarked) [Bitolterol] | 5.78 |
| CCCCCCC(C)OC(=O)COc1nc(F)c(Cl)c(N)c1Cl (centres unmarked) [Fluroxypyr-meptyl] | 38.9 |
| c1ccc(Nc2ccc(Nc3ccccc3)cc2)cc1 [N,N'-Diphenyl-p-phenylenediamine] | 41 |
| C=CCC1=C(C)[C@@H](OC(=O)[C@@H]2[C@@H](C=C(C)C)C2(C)C)CC1=O [S-Bioallethrin] | 23.6 |
| CC(C)c1ccc2c(c1)CC[C@H]1[C@](C)(CN)CCC[C@]21C [Dehydroabietylamine acetate] | 13.3 |
| CC(CN1c2ccccc2Sc2ccccc21)N(C)C (centres unmarked) [Promethazine] | 19.7 |
| C[C@@H]1CC[C@H]2C(C)(C)[C@H]3C[C@@]12CC[C@@]3(C)O [(+)-Cedrol] | 43.6 |
| NC(=O)c1nc(-c2cccc(-c3cc(F)ccc3OCC(F)(F)C(F)(F)F)c2)n[nH]1 [Potassium 5-carbamoyl-3-[5'-fluoro-2'-(2,2,3,3,3-pentafluoropropoxy)-3-biphenylyl]-1,2,4-triazol-1-ide hydrate (1:1:1)] | 47.1 |
| CCc1cccc(N(C)C(N)=Nc2cccc3ccccc23)c1 [Aptiganel hydrochloride] | 10.3 |
| CCc1c(C(=O)NN2CCCCC2)nn(-c2ccc(Cl)cc2Cl)c1-c1ccc(Br)cc1 [Surinabant] | 6.92 |
| COC(=O)C(C)Oc1ccc(Oc2ncc(C(F)(F)F)cc2Cl)cc1 (centres unmarked) [Haloxyfop-methyl] | 35.1 |
| CC(C)COC(=O)COc1ccc(Cl)cc1Cl [2,4-D-isobutyl] | 43.6 |
| CCCCCCCCCCCCCC[N+](C)(C)C [Myristyltrimethylammonium chloride] | 15 |
| CN1CCN(C2=Nc3ccccc3Sc3ccc(Cl)cc32)CC1 [Clothiapine] | 21.3 |
| CCCCN(CCCC)CCCOC(=O)c1ccc(N)cc1 [Butacaine] | 14.5 |

| SMILES | IC50 [µM] |
| --- | --- |
| CC1(c2ccc(Oc3ccccc3)cc2)OC(=O)N(Nc2ccccc2)C1=O (centres unmarked) [Famoxadone] | 22.9 |
| O=C(OCCN1CCOCC1)c1cccnc1Nc1cccc(C(F)(F)F)c1 [Morniflumate] | 10.3 |
| N#CSCSC#N [Methylene bis(thiocyanate)] | 50.1 |
| Clc1ccc(CCC(Cn2ccnc2)Sc2c(Cl)cccc2Cl)cc1 (centres unmarked) [Butoconazole nitrate] | 5.35 |
| c1ccc(-c2ccc(C(c3ccccc3)n3ccnc3)cc2)cc1 (centres unmarked) [Bifonazole] | 12.5 |
| CCCCCCCCn1sccc1=O [Octhilinone] | 27.6 |
| CC[N+](CC)(CC)CCOc1ccc(/C=C/c2ccccc2)cc1 [Stilonium iodide] | 8.82 |
| CCCCCCCCCCCCN(CCO)CCO [Lauryldiethanolamine] | 11.8 |
| CCCCCCOc1cc(C)c(O)c(C)c1C [1-O-Hexyl-2,3,5-trimethylhydroquinone] | 31.3 |
| CCOC(=O)COc1ccc2c(C)c(CCN(CC)CC)c(=O)oc2c1Cl [Cloricromen hydrochloride] | 20.5 |
| CCCCOc1cc(C(=O)NCCN(CC)CC)c2ccccc2n1 [Dibucaine] | 6.74 |
| CCCCCCCCCCCCN1CCOCC1 [4-Dodecylmorpholine] | 15.5 |
| CCN(CC)CCOc1ccc(Cc2ccccc2)cc1 [Tesmilifene] | 8.82 |
| N#C/C(=C1/SC[C@@H](c2ccc(Cl)cc2Cl)S1)n1ccnc1 [Luliconazole] | 3.13 |
| COc1cc(C(C)(C)C)c(O)c(C(C)(C)C)c1 [2,6-Di-tert-butyl-4-methoxyphenol] | 38.9 |
| CCC(CN)=C(c1ccccc1)c1ccccc1 [Etifelmine hydrochloride] | 20.5 |
| CN1CCC(N(Cc2cccs2)c2ccccc2)CC1 [Thenalidine] | 4.96 |
| O=C(OCCOCCO)c1ccccc1Nc1cccc(C(F)(F)F)c1 [Etofenamate] | 13.4 |
| COC(=O)C1=C(C)NC(C)=C(C(=O)OC(C)(C)CN(C)CCC(c2ccccc2)c2ccccc2)C1c1cccc([N+](=O)[O-])c1 (centres unmarked) [Lercanidipine hydrochloride] | 3.25 |
| CCCOc1ccc(S(=O)(=O)N2CCN(CC)CC2)cc1-c1nc2c(CC)n(Cc3ccccn3)nc2c(=O)[nH]1 [UK-343664] | 21.9 |
